Assay results: PMC7887271, “Fast acting allosteric phosphofructokinase inhibitors block trypanosome glycolysis and cure acute African trypanosomiasis in mice” (Nature Communications, 2021)
Where “and” joins values, the source holds several entries; their conditions need not be identical. Equal entries are not always repeated. Where two headings read alike, the source gives them in different places.

Key:
[1] = test system: bloodstream form of T. brucei strain Lister 427; assay: T. b. brucei 427 growth inhibition assay (LILiT, Alamar Blue); type: cell-based; conditions: Trypanosoma brucei
Summary of the method: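 LILiT format: ~2500 bloodstream-form parasites per well in HMI-9 with 10% FBS, 3-fold dilutions 45–0.020 µM (DMSO ≤0.45%), 72 h at 37 °C, 5% CO2. Alamar Blue then added for 4 h; fluorescence read at ex 530/em 590 nm.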

[2] = test system: HepG2 cells; assay: HepG2 cytotoxicity assay; type: cell-based, human
Procedure: (§1) A HepG2 cytotoxicity assay was used to determine a cellular selectivity index. HepG2 cells were seeded into 96-well plates in EMEM medium. Compounds were assessed for their effect upon cellular viability (Supplementary Methods 5.1). Inhibition of CYP450 was determined using kits from BD Biosciences (Supplementary Methods 5.2). Metabolic stability was determined using mouse […] tested at a single concentration of 5 µM. Plasma protein binding was determined using mouse and human plasma at a single concentration of 10 µM (Supplementary Methods 5.4). All PK studies in mice were carried out by Pharmidex (Supplementary Methods 6.1).
To determine a cellular selectivity index, a HepG2 Cytotoxicity Assay was used. HepG2 cells (a human hepatocyte carcinoma cell line) were seeded into 96 well plates in EMEM media. Compounds were assessed for their effect upon cellular viability (6 point dose response curves). After 72h the numbers of viable cells were detected using Promega CellTitreGlo reagent to measure ATP using the luciferase/luciferin detection system. The selectivity index is calculated as the EC50 in the HepG2 assay divided by the EC50 determined in the T. b. brucei parasite killing assay.

[3] = target: T1, CYP2C9 (Homo sapiens, UniProt P11712); assay: Inhibition of CYP450 2C9; type: in vitro ADME; conditions: CYP450 isoform inhibition kit (BD Biosciences), probe MFC
T1 construct: purchased BD Biosciences
Procedure: as §1
The compounds were investigated for their inhibitory effect on cytochrome P450 (CYP450) activity using five CYP450 isoforms (with fluorescent substrates in brackets): 3A4 (two substrates, BFC and DBF), 2D6 (AMMC), 2C9 (MFC), 2C19 (CEC) and 1A2 (CEC). Kits from BD Biosciences were used along with the method described by the manufacturer. […] Fluorescence was measured using a SpectraMax M5 plate reader.

[4] = Metabolic stability, mouse liver microsomes; type: in vitro ADME; conditions: read-out: MLM Clint
Procedure: as §1
Compounds were tested for their metabolic stability using mouse and human liver microsomes (MLM and HLM). The compounds were tested at a single concentration of 5 µM. The samples were crashed with acetonitrile and put through protein precipitation plates. The eluent was analysed by LC/MS or LC/MS/MS.

[5] = Plasma protein binding, mouse plasma; type: in vitro ADME
Procedure: as §1
Compounds were tested for protein binding using mouse and human plasma at a single concentration of 10 µM and measured by equilibrium dialysis between plasma and buffer. The amount of parent was determined on both sides of the membrane after incubating for 4 hours at 37 °C. The samples were crashed with acetonitrile and put through protein precipitation plates. The eluent was analysed by LC/MS or LC/MS/MS. Output was percentage bound.

[6] = Mouse brain tissue binding; type: in vitro ADME; conditions: read-out: Mouse brain tissue binding fu (%)
[7] = Pharmacokinetic studies in mice (IV and PO); type: in vivo, female CD-1 mice; conditions: for AUC(0-inf): read-out: AUC (infinity)
Procedure: PK parameters for the lead compounds were determined using three mice per data point (Supplementary Methods 6.1).
Blood samples were collected from terminal cardiac puncture at 0.08 (IV only), 0.25, 0.5, 1 (PO only), 2, 4, 8 and 24 hour time points. The whole blood was centrifuged to obtain plasma. Brains were also collected following cardiac perfusion from both sets of animals at 2 hours. Analysis of the biological samples was carried out by the company Selcia. Plasma proteins were precipitated by addition of PBS (1 volume) followed by 3 volumes of acetonitrile containing internal standard (verapamil). Following filtration through a protein precipitation plate the eluent was dried under nitrogen and re-suspended in mobile phase prior to analysis. Individual brains were homogenised in PBS and diluted to 10% w/v and divided into aliquots consisting of brain homogenate (1 volume, 0.3 ml) and 3 volumes (0.9 ml) of acetonitrile containing internal standard. Samples were centrifuged and supernatants removed and taken through a protein precipitation plate alongside an appropriate standard. Eluents were dried under nitrogen and re-suspended in mobile phase prior to analysis. Eluents were analysed by LC-MS/MS using a Phenomenex Gemini NX column (C18,30 x 2.1 mm, 3 micron). Analysis of the data was carried out using PK solutions software.

[8] = female, CD-1, plasma, mouse, PO 5 mg kg^−1

T1 sequence (P11712 whole entry, canonical isoform): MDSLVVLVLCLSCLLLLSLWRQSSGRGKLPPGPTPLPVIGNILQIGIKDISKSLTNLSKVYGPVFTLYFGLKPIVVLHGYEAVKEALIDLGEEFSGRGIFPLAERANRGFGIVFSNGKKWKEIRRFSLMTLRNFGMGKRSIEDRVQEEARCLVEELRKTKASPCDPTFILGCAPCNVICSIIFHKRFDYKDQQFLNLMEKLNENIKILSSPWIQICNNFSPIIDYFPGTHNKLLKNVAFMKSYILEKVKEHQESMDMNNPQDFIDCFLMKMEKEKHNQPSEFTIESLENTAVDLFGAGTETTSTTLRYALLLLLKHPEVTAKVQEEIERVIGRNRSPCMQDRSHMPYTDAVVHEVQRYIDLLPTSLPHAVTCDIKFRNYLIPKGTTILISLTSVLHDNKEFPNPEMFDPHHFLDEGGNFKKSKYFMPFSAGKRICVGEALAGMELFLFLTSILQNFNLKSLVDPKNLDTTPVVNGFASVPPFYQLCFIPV

## CN(C)CCn1ccc2c(ccn2Cc2ccc(Cl)c(Cl)c2)c1=O [CTCB-405, 1-[(3,4-Dichlorophenyl)methyl]-5-[2-(dimethylamino)ethyl] pyrrolo[3,2-c]pyridin-4-one]
[1]; 72 h, Alamar Blue, read-out: EC50 (µM) in vitro parasite killing of bloodstream form T. brucei Lister 427 (Tbb EC50)
  EC50: 0.37 ± 0.04 µM
[1]; Glycerol 0 mM, read-out: EC50
  EC50: 0.27 µM
[1]; Glycerol 0.75 mM, read-out: EC50
  EC50: 0.33 µM
[1]; Glycerol 5.0 mM, read-out: EC50
  EC50: 0.45 µM
[1]; Glycerol […], read-out: EC50
  EC50: 0.32 µM
[2]; EC50 HepG2 divided by EC50 T. b. brucei parasite killing
  Selectivity: 56
[2]; Homo sapiens, HepG2, 72 h, CellTitreGlo
  EC50: 20800 nM
[3]
  inhibition at 10 µM: 11%
[4]
  microsomal CLint at 5 µM: 70 µL/min/mg
[5]; 10 µM, equilibrium dialysis, read-out: Mouse plasma protein binding fu(%)
  fraction unbound at 4 h, 10 µM: 0.058
[5]; percentage bound, read-out: mouse plasma protein binding value (converted)
  fraction unbound at 4 h, 10 µM: 0.06
[6]
  fraction unbound: 0.008
[7]; 1 mg/kg IV bolus, mouse (female, CD-1), 0.08 h
  Plasma concentration, individual animal: 0.415 µM and 0.386 µM and 140.6 ng/ml and 135.9 ng/ml
[7]; 1 mg/kg IV bolus, mouse (female, CD-1), 0.25 h
  Plasma concentration, individual animal: 0.37 µM and 0.489 µM and 178.1 ng/ml and 108.2 ng/ml
[7]; 1 mg/kg IV bolus, mouse (female, CD-1), 0.5 h
  Plasma concentration, individual animal: 0.118 µM and 0.159 µM and 57.9 ng/ml and 49.5 ng/ml
[7]; 1 mg/kg IV bolus, mouse (female, CD-1), 2 h
  Plasma concentration, individual animal: 0.049 µM and 0.069 µM and 0.109 µM and 25.1 ng/ml and 39.7 ng/ml and 17.8 ng/ml
[7]; 1 mg/kg IV bolus, mouse (female, CD-1), 4 h
  Plasma concentration, individual animal: 0.042 µM and 0.015 µM and 0.019 µM and 5.5 ng/ml and 6.9 ng/ml and 15.3 ng/ml
[7]; 1 mg/kg IV bolus, mouse (female, CD-1), 8 h
  Plasma concentration, individual animal: 0.011 µM and 4.0 ng/ml
[7]; 5 mg/kg oral dose (PO), mouse (female, CD-1), 0.25 h
  Plasma concentration, individual animal: 279.4 ng/ml and 164.7 ng/ml and 0.767 µM and 0.452 µM
[7]; 5 mg/kg oral dose (PO), mouse (female, CD-1), 0.5 h
  Plasma concentration, individual animal: 77.6 ng/ml and 126.4 ng/ml and 0.213 µM and 0.347 µM
[7]; 5 mg/kg oral dose (PO), mouse (female, CD-1), 1 h
  Plasma concentration, individual animal: 129.3 ng/ml and 229.9 ng/ml and 100.9 ng/ml and 0.355 µM and 0.631 µM and 0.277 µM
[7]; 5 mg/kg oral dose (PO), mouse (female, CD-1), 2 h
  Plasma concentration, individual animal: 177.4 ng/ml and 144.3 ng/ml and 303.4 ng/ml and 0.487 µM and 0.396 µM and 0.833 µM
[7]; 5 mg/kg oral dose (PO), mouse (female, CD-1), 4 h
  Plasma concentration, individual animal: 88.9 ng/ml and 83.8 ng/ml and 0.244 µM and 0.23 µM
[7]; 5 mg/kg oral dose (PO), mouse (female, CD-1), 8 h
  Plasma concentration, individual animal: 9.1 ng/ml and 0.025 µM
[7]; female, CD-1, mouse, plasma, intravenous, 1 mg/kg, 1 mg/kg IV bolus, mouse (female, CD-1), 0.08 h, read-out: Plasma concentration, Mean
  concentration at 0.08 h: 143 ng/mL and 391 nM
[7]; female, CD-1, mouse, plasma, intravenous, 1 mg/kg, 1 mg/kg IV bolus, mouse (female, CD-1), 0.08 h, read-out: Plasma concentration, individual animal
  concentration at 0.08 h: 373 nM and 151 ng/mL
[7]; female, CD-1, mouse, plasma, intravenous, 1 mg/kg, 1 mg/kg IV bolus, mouse (female, CD-1), 0.25 h, read-out: Plasma concentration, Mean
  concentration at 0.25 h: 140 ng/mL and 385 nM
[7]; female, CD-1, mouse, plasma, intravenous, 1 mg/kg, 1 mg/kg IV bolus, mouse (female, CD-1), 0.25 h, read-out: Plasma concentration, individual animal
  concentration at 0.25 h: 297 nM and 135 ng/mL
[7]; female, CD-1, mouse, plasma, intravenous, 1 mg/kg, 1 mg/kg IV bolus, mouse (female, CD-1), 0.5 h, read-out: Plasma concentration, Mean
  concentration at 0.5 h: 50.1 ng/mL and 138 nM
[7]; female, CD-1, mouse, plasma, intravenous, 1 mg/kg, 1 mg/kg IV bolus, mouse (female, CD-1), 0.5 h, read-out: Plasma concentration, individual animal
  concentration at 0.5 h: 136 nM and 43 ng/mL
[7]; female, CD-1, mouse, plasma, intravenous, 1 mg/kg, 1 mg/kg IV bolus, mouse (female, CD-1), 2 h
  concentration at 2 h: 27.6 ng/mL and 75.7 nM
[7]; female, CD-1, mouse, plasma, intravenous, 1 mg/kg, 1 mg/kg IV bolus, mouse (female, CD-1), 4 h, read-out: Plasma concentration, Mean
  concentration at 4 h: 9.23 ng/mL and 25.3 nM
[7]; female, CD-1, mouse, plasma, intravenous, 1 mg/kg, 1 mg/kg IV bolus, mouse (female, CD-1), 8 h, read-out: Plasma concentration, Mean
  concentration at 8 h: 3.28 ng/mL and 9 nM
[7]; female, CD-1, mouse, plasma, intravenous, 1 mg/kg, 1 mg/kg IV bolus, mouse (female, CD-1), 8 h, read-out: Plasma concentration, individual animal
  concentration at 8 h: 7 nM and 2.5 ng/mL
[7]; female, CD-1, mouse, plasma, oral, 5 mg/kg, 5 mg/kg oral dose (PO), mouse (female, CD-1), 0.25 h, read-out: Plasma concentration, Mean
  concentration at 0.25 h: 200 ng/mL and 548 nM
[7]; female, CD-1, mouse, plasma, oral, 5 mg/kg, 5 mg/kg oral dose (PO), mouse (female, CD-1), 0.25 h, read-out: Plasma concentration, individual animal
  concentration at 0.25 h: 155 ng/mL and 426 nM
[7]; female, CD-1, mouse, plasma, oral, 5 mg/kg, 5 mg/kg oral dose (PO), mouse (female, CD-1), 0.5 h, read-out: Plasma concentration, Mean
  concentration at 0.5 h: 103 ng/mL and 283 nM
[7]; female, CD-1, mouse, plasma, oral, 5 mg/kg, 5 mg/kg oral dose (PO), mouse (female, CD-1), 0.5 h, read-out: Plasma concentration, individual animal
  concentration at 0.5 h: 105 ng/mL and 288 nM
[7]; female, CD-1, mouse, plasma, oral, 5 mg/kg, 5 mg/kg oral dose (PO), mouse (female, CD-1), 1 h
  concentration at 1 h: 153 ng/mL and 421 nM
[7]; female, CD-1, mouse, plasma, oral, 5 mg/kg, 5 mg/kg oral dose (PO), mouse (female, CD-1), 2 h
  concentration at 2 h: 208 ng/mL and 572 nM
[7]; female, CD-1, mouse, plasma, oral, 5 mg/kg, 5 mg/kg oral dose (PO), mouse (female, CD-1), 4 h, read-out: Plasma concentration, Mean
  concentration at 4 h: 89 ng/mL and 244 nM
[7]; female, CD-1, mouse, plasma, oral, 5 mg/kg, 5 mg/kg oral dose (PO), mouse (female, CD-1), 4 h, read-out: Plasma concentration, individual animal
  concentration at 4 h: 94.3 ng/mL and 259 nM
[7]; female, CD-1, mouse, plasma, oral, 5 mg/kg, 5 mg/kg oral dose (PO), mouse (female, CD-1), 8 h, read-out: Plasma concentration, Mean
  concentration at 8 h: 8.2 ng/mL and 22.5 nM
[7]; female, CD-1, mouse, plasma, oral, 5 mg/kg, 5 mg/kg oral dose (PO), mouse (female, CD-1), 8 h, read-out: Plasma concentration, individual animal
  concentration at 8 h: 7.3 ng/mL and 20 nM
[7]; female, CD-1, plasma, mouse, IV 1 mg kg^−1
  AUC(0-inf): 260 ng·h/mL
[7]; female, CD-1, plasma, mouse, IV 1 mg kg^−1, read-out: CL/kg (converted)
  clearance: 63.3 mL/min/kg
[7]; female, CD-1, plasma, mouse, IV 1 mg kg^−1, read-out: Elimination t1/2 (converted)
  half-life: 2.7 h
[7]; female, CD-1, plasma, mouse, IV 1 mg kg^−1, read-out: Vd (area)
  Vd: 12.3 L/kg
[7]; [8]
  Cmax: 206 ng/mL
  Tmax: 0.3 h
  AUC(0-inf): 704 ng·h/mL
[7]; female, CD-1, plasma, mouse, PO 5 mg kg^−1 vs IV 1 mg kg^−1, read-out: Bioavailability (F%)
  bioavailability: 54%
